Source: article PMC6451745, “Development and dosimetry of ^203Pb/^212Pb-labelled PSMA ligands: bringing “the lead” into PSMA-targeted alpha therapy?” (European Journal of Nuclear Medicine and Molecular Imaging, 2019)

Key:
[1] = molecular target: T1, PSMA (Homo sapiens, UniProt Q04609); test: Competitive binding assay on C4-2 cells; details: reference ^68Ga-labelled PSMA-HBED-CC dimer (PSMA-10), mean ± SD
T1 construct: host or cells: C4-2 cells (LNCaP subline)
Description: (§1) In vitro and in vivo experiments were performed using the PSMA-positive C4-2 cell line, a subline of the LNCaP (lymph node carcinoma of the prostate) cell line (CRL-3314; American Type Culture Collection). C4-2 cells were cultivated in RPMI-1640 (PAN Biotech) supplemented with 10% fetal calf serum and stable glutamine (PAN Biotech). Cells were grown at 37 °C and incubated in humidified air equilibrated with 5% CO2.
A MultiScreenHTS-DV filter plate was incubated at room temperature with 100 μl phosphate-buffered saline (PBS) containing 1% bovine serum albumin (BSA) per well for 30 min. After removal of the PBS/BSA solution, 1 × 10^5 C4-2 cells in Opti-MEM were added to each well. All nonlabelled compounds were dissolved in 300 μl Opti-MEM at the following concentrations: 0, 0.5, 1, 2.5, 5, 10, 25, 50, 100, 500, 1,000 and 5,000 nM. Subsequently, 3 μl of the radiolabelled compound was added, and 50 μl of this mixture was taken to obtain a solution containing 0.75 nM of the radiolabelled ligand. After 45 min incubation at 37 °C, the cells were washed twice with PBS, the radioactivity accumulated in the cells was collected, and the remaining radioactivity was measured in a gamma counter. The inhibitory potency was determined using ^68Ga-labelled PSMA-HBED-CC dimer (i.e. PSMA-10) as the reference. The 50% inhibitory concentration was calculated using a nonlinear regression algorithm (GraphPad Prism 5.01 software). The experiments were performed in quadruplicate.

[2] = test system: C4-2 tumour-bearing mice; test: Planar scintigraphic imaging in tumour-bearing mice; assay type: in vivo; details: ^203Pb-labelled, 1 h after injection, Fig. 3
Description: The in vivo experiments were carried out in accordance with the laws on animal welfare of the Federal Republic of Germany. For imaging and biodistribution studies, male BALB/c nu/nu mice (20–25 g; Charles River) bearing C4-2 tumour xenografts were used. The mice were inoculated subcutaneously in the right trunk with 5 × 10^6 C4-2 cells in 50% Matrigel in Opti-MEM (1×). For small-animal imaging the mice were anaesthetized with 2% sevoflurane, and then 0.1 nmol (1.0 MBq) of the respective ^203Pb ligand was injected into a tail vein. Serial planar scans were performed using a Gamma Imager-sct (Biospace Lab, Paris, France) with a parallel collimator (35 mm/1.8 mm/0.2 mm) after 10 min, 1 h, 4 h and 24 h. Based on the imaging results, compound CA012 was chosen for biodistribution studies. Experiments were performed in triplicate. For biodistribution, 0.025 nmol (1 MBq) of labelled compound per mouse was administered by injection into a tail vein. After 10 min, 1 h, 4 h and 24 h the mice were killed, the organs were dissected and weighed, and activity was measured using a gamma counter (Packard Cobra Auto-gamma). The organ uptakes were calculated as the percentage of the injected dose per gram of tissue (%ID/g).

[3] = test system: C4-2 cells; test: Determination of specific internalization ratio; assay type: cell-based
Description: as §1
For determination of the specific internalization ratio, 24-well plates were incubated for 20 min with 0.1% poly-L-lysine in PBS at room temperature and washed once with PBS. In the next step, 1 ml RPMI containing 1 × 10^5 C4-2 cells was added to each well and incubated overnight. The conditions during the experiment for each compound were: incubation at 37 °C or 4 °C with or without receptor blocking via 2-(phosphonomethyl)pentanedioic acid (2-PMPA; Axxora) at a final concentration of 500 μM. The cells were then incubated with 250 μl of a 30 nM solution of ^203Pb-labelled compound. The plates were incubated either for 45 min in a water bath at 37 °C or on ice at 4 °C. The cells were then washed three times with 1 ml ice-cold PBS and incubated with 0.5 ml glycine (50 mM in HCl, pH 2.8) for 5 min. After an additional washing step with 1 ml ice-cold PBS, the cells were lysed with 0.5 ml 0.3 M NaOH and collected, and the radioactivity was measured with a gamma counter for 1 min. The specific cellular uptake was determined as the percentage of initially added radioactivity bound per 10^6 cells (%IA/10^6 cells) by subtraction of the respective uptake under blocking conditions. All experiments were performed in triplicate.

[4] = ^203Pb-labelled compound 30 nM, 45 min, 2-PMPA blocking subtracted, mean ± SD n = 3

T1 sequence (Q04609 whole entry): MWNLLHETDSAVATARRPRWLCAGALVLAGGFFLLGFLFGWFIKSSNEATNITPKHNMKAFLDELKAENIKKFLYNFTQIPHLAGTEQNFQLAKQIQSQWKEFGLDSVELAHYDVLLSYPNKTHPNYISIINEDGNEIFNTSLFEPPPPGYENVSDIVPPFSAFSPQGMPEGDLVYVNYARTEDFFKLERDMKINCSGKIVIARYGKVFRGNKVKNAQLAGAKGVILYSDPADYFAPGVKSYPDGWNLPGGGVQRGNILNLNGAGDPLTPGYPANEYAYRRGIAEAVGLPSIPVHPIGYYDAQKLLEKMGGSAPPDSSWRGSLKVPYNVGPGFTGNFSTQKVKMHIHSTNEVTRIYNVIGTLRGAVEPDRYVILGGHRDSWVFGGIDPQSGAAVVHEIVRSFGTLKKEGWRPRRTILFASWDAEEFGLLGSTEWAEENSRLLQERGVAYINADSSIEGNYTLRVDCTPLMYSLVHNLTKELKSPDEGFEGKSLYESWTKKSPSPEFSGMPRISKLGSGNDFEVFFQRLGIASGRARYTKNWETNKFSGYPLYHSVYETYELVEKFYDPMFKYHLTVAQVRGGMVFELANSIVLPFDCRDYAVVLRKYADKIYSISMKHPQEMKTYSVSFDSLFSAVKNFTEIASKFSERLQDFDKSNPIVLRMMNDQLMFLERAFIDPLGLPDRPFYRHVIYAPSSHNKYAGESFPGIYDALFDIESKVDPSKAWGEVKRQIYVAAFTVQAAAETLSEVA

| tumour uptake in mice (planar scintigraphy) [2] | Structure (SMILES) | Ki [1] [nM] | specific ligand-induced internalization [3] [%IA/10^6 cells] | Specific cell surface [3, 4] [%IA/10^6 cells] | Specific lysate (specific internalization) [3, 4] [%IA/10^6 cells] |
| --- | --- | --- | --- | --- | --- |
| low tumour uptake | NC(=O)CN1CCN(CC(N)=O)CCN(CC(N)=O)C(Cc2ccc(NC(=S)NC(Cc3ccc4ccccc4c3)C(=O)NCCCC[C@H](NC(=O)N[C@@H](CCC(=O)O)C(=O)O)C(=O)O)cc2)CN(CC(N)=O)CC1 (stereo partly drawn) [CA008] | 28.8 ± 3.4 |  |  |  |
|  | NC(=O)CN1CCN(CC(N)=O)CCN(CC(N)=O)C(Cc2ccc(NC(=S)NCC3CCC(C(=O)NC(Cc4ccc5ccccc5c4)C(=O)NCCCC[C@H](NC(=O)N[C@@H](CCC(=O)O)C(=O)O)C(=O)O)CC3)cc2)CN(CC(N)=O)CC1 (stereo partly drawn) [CA009] | 15.3 ± 3.1 | 27.4 ± 2.4 | 106.5 ± 2.8 | 27.4 ± 2.4 |
